Measurements published in US11149031B2, “Substituted N-(3-fluoropropyl)-pyrrolidine compounds, processes for their preparation and therapeutic uses thereof” (SANOFI, priority 2016, dated 2021).

How the values were obtained:
[1] = target: His6-ERα298-554 WT (ERα ligand-binding domain) (Homo sapiens (Human), UniProt P03372); test: Test A: biochemical antagonist activity, LanthaScreen TR-FRET ERα coactivator assay, WT; conditions: protocol with 3 nM estradiol; read-out: Antagonism WT IC50
Protocol: (§1) Test A: Biochemical Antagonist Activity on Wild Type (WT) and Mutants
(§2) Estrogen Receptors Test A involves measuring the in vitro antagonist activity of the compounds of the invention on estrogen receptors.
(§3) The measurements of the antagonist activities were made using an estrogen receptor coactivator assay as described hereunder.
(§4) Antagonistic potency of compounds was evaluated using LanthaScreen® TR-FRET ERα Coactivator Assay (ThermoFisher) with modifications. […] The assay works in a homogeneous mix-and-read format. In a typical experiment, a 4 μL mixture of 0.5 nM His6-ERα298-554, 0.5 nM Tb-labeled His6 antibody, 250 nM PGC1a peptide, and 3 nM estradiol (or 10 nM estradiol) in 100 mM potassium phosphate, pH 7.4, 0.01% Tween-20, 0.02% NaN3, 5 mM DTT, was added to 40 nL test compound in DMSO and incubated overnight at room temperature. The TR-FRET 520:495 nm emission ratio was calculated and used to determine the IC50 value from a dose response curve fit to the 4-parameter logistic equation.

[2] = target: His6-ERα298-554 Y537S mutant (ERα ligand-binding domain) (Homo sapiens (Human), UniProt P03372, Y537S); test: Test A: biochemical antagonist activity, LanthaScreen TR-FRET ERα coactivator assay, Y537S mutant; conditions: protocol with 3 nM estradiol; read-out: Antagonism Y537S IC50
Chain of His6-ERα298-554 Y537S mutant (ERα ligand-binding domain) (P03372 298-554 Y537S): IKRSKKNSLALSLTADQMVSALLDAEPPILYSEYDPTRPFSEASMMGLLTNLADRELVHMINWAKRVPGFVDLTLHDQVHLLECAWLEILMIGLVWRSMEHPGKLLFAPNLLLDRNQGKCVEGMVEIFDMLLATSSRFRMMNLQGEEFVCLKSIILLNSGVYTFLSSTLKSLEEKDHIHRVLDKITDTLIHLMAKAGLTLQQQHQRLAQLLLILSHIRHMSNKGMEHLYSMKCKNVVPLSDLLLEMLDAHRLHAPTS
Protocol: as §1, §2, §3, §4

ERα in MCF7 cells = ERα in MCF7 cells (Homo sapiens (Human), UniProt P03372); test: Test C: estrogen receptor degradation activity, ERα in cell western assay in MCF7 cells; type: cell-based; conditions: for DC50: 4 hours post compound addition, ERα in cell western, read-out: Degradation IC50; for % Degradation at 3 μM: 4 hours, relative to fulvestrant
Chain of ERα in MCF7 cells (P03372 whole entry): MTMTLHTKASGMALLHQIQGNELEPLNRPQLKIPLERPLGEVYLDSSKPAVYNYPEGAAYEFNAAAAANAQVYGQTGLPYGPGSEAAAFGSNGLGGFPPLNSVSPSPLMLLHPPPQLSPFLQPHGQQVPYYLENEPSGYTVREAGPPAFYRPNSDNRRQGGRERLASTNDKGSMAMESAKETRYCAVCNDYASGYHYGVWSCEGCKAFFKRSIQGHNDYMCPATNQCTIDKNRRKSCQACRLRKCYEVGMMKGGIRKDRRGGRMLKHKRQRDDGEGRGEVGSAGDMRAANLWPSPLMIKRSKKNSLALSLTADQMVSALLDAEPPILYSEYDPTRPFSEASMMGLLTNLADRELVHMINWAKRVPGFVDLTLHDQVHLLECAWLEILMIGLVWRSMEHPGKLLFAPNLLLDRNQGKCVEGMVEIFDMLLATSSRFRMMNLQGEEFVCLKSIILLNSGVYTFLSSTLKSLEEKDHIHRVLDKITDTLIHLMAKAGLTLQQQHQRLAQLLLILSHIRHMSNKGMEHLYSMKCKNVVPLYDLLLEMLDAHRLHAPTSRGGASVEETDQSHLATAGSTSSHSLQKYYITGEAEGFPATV
Protocol: Test C: Estrogen Receptor Degradation Activity
Test C involves measuring the in vitro degradation activity of the compounds of the invention.
The measurements of the degradation activities were made using abreast cancer cell ERα in cell western assay as described hereunder.
MCF7 cells (ATCC) were seeded in 384 wells microplate (collagen coated) at concentration of >9990 cells/30 μL per well in red phenol free MEM alpha medium (invitrogen) containing 5% charcoal dextran striped FBS. The following day, 9 points serial 1:5 dilution of each compound were added to the cells in 2.5 μL at final concentrations ranging from 3-0.000018 μM or 0.1 μM for fulvestrant (using as positive control). At 4 hours post compounds addition the cells were fixed by adding 25 μL of formalin (final concentration 5% formalin containing 0.1% triton) for 10 minutes at room temperature and then washed twice with PBS. Then, 50 μL of LI-COR blocking buffer containing 0.1% Triton was added to plate for 30 minutes at room temperature. LI-COR blocking buffer was removed and cells were incubated overnight at cold room with 50 μL anti-ER rabbit monoclonal antibody (Thermo scientific MA1-39540) diluted at 1:>999 in LI-COR blocking buffer containing 0.1% tween-20. Wells which were treated with blocking but no antibody were used as background control. Wells were washed twice with PBS (0.1% tween-20) and incubated at 37° C. for 60 minutes in LI-COR (0.1% tween-20) containing goat anti-rabbit antibody Alexa 488 (1:>999) and Syto-64 a DNA dye (2 μM final concentration). Cells were then washed 3 times in PBS and scanned in ACUMEN explorer (TTP-Labtech). Integrated intensities in the green fluorescence and red fluorescence were measured to determine the levels of ERα and DNA respectively.

[3] = target: His6-ERα298-554 D538G mutant (ERα ligand-binding domain) (Homo sapiens (Human), UniProt P03372, D538G); test: Test A: biochemical antagonist activity, LanthaScreen TR-FRET ERα coactivator assay, D538G mutant; conditions: protocol with 3 nM estradiol; read-out: Antagonism D538G IC50
Chain of His6-ERα298-554 D538G mutant (ERα ligand-binding domain) (P03372 298-554 D538G): as the sequence (P03372 298-554 Y537S) above, with S240Y, D241G counted along it
Protocol: as §1, §2, §3, §4

Chain of His6-ERα298-554 WT (ERα ligand-binding domain) (P03372 298-554): as the sequence (P03372 298-554 Y537S) above, with S240Y counted along it

Row | SMILES | IC50 [1] [nM] | IC50 [2] [nM] | DC50 (ERα in MCF7 cells) [nM] | % Degradation at 3 μM (ERα in MCF7 cells) [%] | IC50 [3] [nM]
1 | Oc1ccc2c(c1F)OCCC(c1ccc3c(c1)NCC3)=C2c1ccc(O[C@H]2CCN(CCCF)C2)cc1 [Example 132, 9-fluoro-5-[4-[(3S)-1-(3-fluoropropyl)pyrrolidin-3-yl]oxyphenyl]-4-indolin-6-yl-2,3-dihydro-1-benzoxepin-8-ol] | 28 | 334 | 2 | 88 | 473
2 | Oc1ccc2c(c1F)OCCC(c1cccc3[nH]ccc13)=C2c1ccc(O[C@H]2CCN(CCCF)C2)cc1 [Example 133, 9-fluoro-5-[4-[(3S)-1-(3-fluoropropyl)pyrrolidin-3-yl]oxyphenyl]-4-(1H-indol-4-yl)-2,3-dihydro-1-benzoxepin-8-ol] | 4 | 39 | 2 | 83 | 64
3 | Oc1ccc2c(c1F)OCCC(c1cccc3c1CCN3)=C2c1ccc(O[C@H]2CCN(CCCF)C2)cc1 [Example 134, 9-fluoro-5-[4-[(3S)-1-(3-fluoropropyl)pyrrolidin-3-yl]oxyphenyl]-4-indolin-4-yl-2,3-dihydro-1-benzoxepin-8-ol] | 19 | 225 | 3 | 85 | 328
4 | Cc1cc2c(cc1O)OCCC(c1cccc(Cl)c1C)=C2c1ccc(O[C@H]2CCN(CCCF)C2)cc1 [Example 135, 4-(3-chloro-2-methyl-phenyl)-5-[4-[(3S)-1-(3-fluoropropyl)pyrrolidin-3-yl]oxyphenyl]-7-methyl-2,3-dihydro-1-benzoxepin-8-ol] | 21 | 352 | 3 | 87 | 591
5 | Cc1cc2c(cc1O)OCCC(c1cccc(O)c1)=C2c1ccc(O[C@H]2CCN(CCCF)C2)cc1 [Example 136, 5-[4-[(3S)-1-(3-fluoropropyl)pyrrolidin-3-yl]oxyphenyl]-4-(3-hydroxyphenyl)-7-methyl-2,3-dihydro-1-benzoxepin-8-ol] | 4 | 44 | 1 | 79 | 59
6 | Cc1cc2c(cc1O)OCCC(c1ccc3c(c1)CCN3)=C2c1ccc(O[C@H]2CCN(CCCF)C2)cc1 [Example 137, 5-[4-[(3S)-1-(3-fluoropropyl)pyrrolidin-3-yl]oxyphenyl]-4-indolin-5-yl-7-methyl-2,3-dihydro-1-benzoxepin-8-ol] | 250 | 1220 | 5 | 75 | 1710
7 | Cc1cc2c(cc1O)OCCC(c1ccc3[nH]ccc3c1)=C2c1ccc(O[C@H]2CCN(CCCF)C2)cc1 [Example 139, 5-[4-[(3S)-1-(3-fluoropropyl)pyrrolidin-3-yl]oxyphenyl]-4-(1H-indol-5-yl)-7-methyl-2,3-dihydro-1-benzoxepin-8-ol] | 68 | 819 | 9 | 73 | 1170
8 | Cc1ccc(C2=C(c3ccc(O[C@H]4CCN(CCCF)C4)cc3)c3cc(C)c(O)cc3OCC2)c(F)c1 [Example 140, 4-(2-fluoro-4-methyl-phenyl)-5-[4-[(3S)-1-(3-fluoropropyl)pyrrolidin-3-yl]oxyphenyl]-7-methyl-2,3-dihydro-1-benzoxepin-8-ol] | 36 | 542 | 3 | 85 | 644
9 | Oc1cccc(C2=C(c3ccc(O[C@H]4CCN(CCCF)C4)cc3)c3ccc(O)cc3SCC2)c1 [Example 158, 5-[4-[(3S)-1-(3-fluoropropyl)pyrrolidin-3-yl]oxyphenyl]-4-(3-hydroxyphenyl)-2,3-dihydro-1-benzothiepin-8-ol] | 1 | 3 | 0.2 | 88 | 4
10 | Oc1ccc2c(c1)SCCC(c1ccc(F)cc1Cl)=C2c1ccc(O[C@H]2CCN(CCCF)C2)cc1 [Example 159, 4-(2-chloro-4-fluoro-phenyl)-5-[4-[(3S)-1-(3-fluoropropyl)pyrrolidin-3-yl]oxyphenyl]-2,3-dihydro-1-benzothiepin-8-ol] | 3 | 10 | 0.5 | 89 | 17
11 | Oc1ccc2c(c1)SCCC(c1ccc3[nH]ccc3c1)=C2c1ccc(O[C@H]2CCN(CCCF)C2)cc1 [Example 160, 5-[4-[(3S)-1-(3-fluoropropyl)pyrrolidin-3-yl]oxyphenyl]-4-(1H-indol-5-yl)-2,3-dihydro-1-benzothiepin-8-ol] | 3 | 8 | 0.2 | 75 | 13
12 | Oc1ccc2c(c1)SCCC(c1ccc(Cl)c(F)c1)=C2c1ccc(O[C@H]2CCN(CCCF)C2)cc1 [Example 161, 4-(4-chloro-3-fluoro-phenyl)-5-[4-[(3S)-1-(3-fluoropropyl)pyrrolidin-3-yl]oxyphenyl]-2,3-dihydro-1-benzothiepin-8-ol] | 6 | 22 | 0.7 | 93 | 31
13 | Cc1c(Cl)cccc1C1=C(c2ccc(O[C@H]3CCN(CCCF)C3)cc2)c2ccc(O)cc2SCC1 [Example 163, 4-(3-chloro-2-methyl-phenyl)-5-[4-[(3S)-1-(3-fluoropropyl)pyrrolidin-3-yl]oxyphenyl]-2,3-dihydro-1-benzothiepin-8-ol] | 5 | 19 | 0.6 | 94 | 24
14 | Cc1cc(F)ccc1C1=C(c2ccc(O[C@H]3CCN(CCCF)C3)cc2)c2ccc(O)cc2SCC1 [Example 165, 4-(4-fluoro-2-methyl-phenyl)-5-[4-[(3S)-1-(3-fluoropropyl)pyrrolidin-3-yl]oxyphenyl]-2,3-dihydro-1-benzothiepin-8-ol] | 3 | 8 | 0.2 | 90 | 11
15 | Oc1ccc2c(c1)SCCC(c1ccc(Cl)cc1F)=C2c1ccc(O[C@H]2CCN(CCCF)C2)cc1 [Example 167, 4-(4-chloro-2-fluoro-phenyl)-5-[4-[(3S)-1-(3-fluoropropyl)pyrrolidin-3-yl]oxyphenyl]-2,3-dihydro-1-benzothiepin-8-ol] | 5 | 16 | 0.5 | 87 | 26
16 | Oc1ccc2c(c1)SCCC(c1cccc(F)c1Cl)=C2c1ccc(O[C@H]2CCN(CCCF)C2)cc1 [Example 168, 4-(2-chloro-3-fluoro-phenyl)-5-[4-[(3S)-1-(3-fluoropropyl)pyrrolidin-3-yl]oxyphenyl]-2,3-dihydro-1-benzothiepin-8-ol] | 3 | 9 | 0.7 | 86 | 14
17 | Oc1ccc(C2=C(c3ccc(O[C@H]4CCN(CCCF)C4)cc3)c3ccc(O)cc3SCC2)c(F)c1 [Example 169, 4-(2-fluoro-4-hydroxy-phenyl)-5-[4-[(3S)-1-(3-fluoropropyl)pyrrolidin-3-yl]oxyphenyl]-2,3-dihydro-1-benzothiepin-8-ol] | 2 | 3 | 0.2 | 85 | 5
